#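 Protocol summary: plate cells (96-well), add compound at 5 concentrations, incubate 48 h, interpolate endpoints linearly. Here, GI50 denotes the concentration required for 50% inhibition of growth. At the TGI there is no net growth.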
# What was measured:
# Experiment in all cases: NCI tumour cell line growth inhibition, 48 h
# [1] = system: NCI-H23 lung
# [2] = system: HCC-2998 colon
# [3] = system: SK-MEL-5 melanoma
# [4] = system: SK-MEL-2 melanoma
# [5] = system: NCI-H522 lung
# [6] = system: UO-31 renal
# [7] = system: SW-620 colon
# [8] = system: K-562 leukemia
# [9] = system: HS 578T breast
# [10] = system: SK-OV-3 ovarian
# [11] = system: COLO 205 colon
# [12] = system: OVCAR-4 ovarian
# [13] = system: T-47D breast
# [14] = system: U251 CNS
# [15] = system: HOP-92 NSCLC
# [16] = system: MDA-MB-435
# [17] = system: MALME-3M melanoma
# [18] = system: NCI-H460 lung
# [19] = system: A498 renal
# [20] = system: SF-295 CNS
# [21] = system: SF-539 CNS
# [22] = system: 786-0 renal
# [23] = system: TK-10 renal
# [24] = system: NCI/ADR-RES ovarian
# [25] = system: EKVX NSCLC
# [26] = system: SNB-75 CNS
# [27] = system: UACC-62 melanoma
# [28] = system: IGROV1 ovarian
# [29] = system: MCF7 breast
# [30] = system: OVCAR-8 ovarian
# [31] = system: MDA-MB-231 breast
# [32] = system: MOLT-4 leukemia
# [33] = system: SN12C renal
# [34] = system: HOP-62 NSCLC
# [35] = system: DU-145 prostate
# [36] = system: SR leukemia
# [37] = system: BT-549 breast
# [38] = system: HL-60(TB) leukemia
# [39] = system: OVCAR-5 ovarian
# [40] = system: SNB-19 CNS
# [41] = system: KM12 colon
# [42] = system: RPMI-8226 leukemia
# [43] = system: HCT-15 colon
# [44] = system: HT29 colon
# [45] = system: PC-3 prostate
# [46] = system: CCRF-CEM leukemia
# [47] = system: HCT-116 colon
# [48] = system: SK-MEL-28 melanoma
# [49] = system: ACHN renal
# [50] = system: NCI-H226 lung
# [51] = system: A549 NSCLC
# [52] = system: UACC-257 melanoma
# [53] = system: LOX IMVI melanoma
# [54] = system: RXF 393 renal
# [55] = system: CAKI-1 renal
# [56] = system: SF-268 CNS
# [57] = system: OVCAR-3 ovarian
# [58] = system: M14 melanoma
compound,measurement,setting,value
CCN(CC)c1ccc(/C=N/NC(=O)c2ccc(S(N)(=O)=O)cc2)cc1,GI50,[1],2.11 µM
same,TGI,[1],> 100 µM
same,GI50,[2],0.612 µM
same,TGI,[2],51 µM
same,GI50,[3],1.42 µM
same,TGI,[3],> 100 µM
same,GI50,[4],3.17 µM
same,TGI,[4],20.7 µM
same,GI50,[5],0.403 µM
same,TGI,[5],23.2 µM
same,GI50,[6],0.487 µM
same,TGI,[6],24 µM
same,GI50,[7],0.597 µM
same,TGI,[7],> 100 µM
same,GI50,[8],0.479 µM
same,TGI,[8],> 100 µM
same,GI50,[9],2.37 µM
same,TGI,[9],40.8 µM
same,GI50,[10],0.533 µM
same,TGI,[10],21.4 µM
same,GI50,[11],0.437 µM
same,TGI,[11],19 µM
same,GI50,[12],0.397 µM
same,TGI,[12],> 77.6 µM
same,GI50,[13],0.686 µM
same,TGI,[13],> 72.3 µM
same,GI50,[14],0.268 µM
same,TGI,[14],18.7 µM
same,GI50,[15],0.43 µM
same,TGI,[15],14.6 µM
same,GI50,[16],0.975 µM
same,TGI,[16],> 100 µM
same,GI50,[17],0.856 µM
same,TGI,[17],11.3 µM
same,GI50,[18],0.51 µM
same,TGI,[18],10.4 µM
same,GI50,[19],4.26 µM
same,TGI,[19],29.3 µM
same,GI50,[20],0.739 µM
same,TGI,[20],18.3 µM
same,GI50,[21],0.488 µM
same,TGI,[21],8.11 µM
same,GI50,[22],0.61 µM
same,TGI,[22],4.67 µM
same,GI50,[23],1.76 µM
same,TGI,[23],47.8 µM
same,GI50,[24],3.11 µM
same,TGI,[24],> 100 µM
same,GI50,[25],0.782 µM
same,TGI,[25],> 82.1 µM
same,GI50,[26],0.496 µM
same,TGI,[26],5.91 µM
same,GI50,[27],0.499 µM
same,TGI,[27],8.78 µM
same,GI50,[28],0.69 µM
same,TGI,[28],> 100 µM
same,GI50,[29],0.488 µM
same,TGI,[29],> 100 µM
same,GI50,[30],0.406 µM
same,TGI,[30],> 52.6 µM
same,GI50,[31],0.525 µM
same,TGI,[31],64.3 µM
same,GI50,[32],0.373 µM
same,TGI,[32],15 µM
same,GI50,[33],0.957 µM
same,TGI,[33],> 100 µM
same,GI50,[34],0.338 µM
same,TGI,[34],11.9 µM
same,GI50,[35],0.828 µM
same,TGI,[35],> 58.6 µM
same,GI50,[36],0.0839 µM
same,TGI,[36],3.07 µM
same,GI50,[37],1 µM
same,TGI,[37],8.29 µM
same,GI50,[38],0.255 µM
same,TGI,[38],4.38 µM
same,GI50,[39],2.58 µM
same,TGI,[39],> 100 µM
same,GI50,[40],1.12 µM
same,TGI,[40],> 64.8 µM
same,GI50,[41],0.811 µM
same,TGI,[41],> 63.3 µM
same,GI50,[42],2.84 µM
same,TGI,[42],13.7 µM
same,GI50,[43],0.419 µM
same,TGI,[43],44.2 µM
same,GI50,[44],0.614 µM
same,TGI,[44],17.3 µM
same,GI50,[45],0.469 µM
same,TGI,[45],73.4 µM
same,GI50,[46],0.178 µM
same,TGI,[46],> 100 µM
same,GI50,[47],0.324 µM
same,TGI,[47],19.2 µM
same,GI50,[48],0.495 µM
same,TGI,[48],> 67.4 µM
same,GI50,[49],0.605 µM
same,TGI,[49],22.3 µM
same,GI50,[50],1.39 µM
same,TGI,[50],23.9 µM
same,GI50,[51],1.78 µM
same,TGI,[51],> 100 µM
same,GI50,[52],0.869 µM
same,TGI,[52],7.9 µM
same,GI50,[53],0.271 µM
same,TGI,[53],4.51 µM
same,GI50,[54],1.1 µM
same,TGI,[54],3.8 µM
same,GI50,[55],0.488 µM
same,TGI,[55],25.8 µM
same,GI50,[56],0.328 µM
same,TGI,[56],25.8 µM
same,GI50,[57],0.244 µM
same,TGI,[57],> 100 µM
CC(=O)Oc1ccccc1C(=O)Nc1ccc(C(=O)/C=C/c2ccncc2)cc1,GI50,[2],22.2 µM
same,TGI,[2],55.2 µM
same,GI50,[3],> 100 µM
same,TGI,[3],> 100 µM
same,GI50,[4],> 100 µM
same,TGI,[4],> 100 µM
same,GI50,[5],> 100 µM
same,TGI,[5],> 100 µM
same,GI50,[6],63.2 µM
same,TGI,[6],> 100 µM
same,GI50,[7],24.3 µM
same,TGI,[7],> 100 µM
same,GI50,[8],22.7 µM
same,TGI,[8],> 100 µM
same,GI50,[9],57.4 µM
same,TGI,[9],> 100 µM
same,GI50,[10],> 100 µM
same,TGI,[10],> 100 µM
same,GI50,[11],38.1 µM
same,TGI,[11],> 100 µM
same,GI50,[12],85.8 µM
same,TGI,[12],> 100 µM
same,GI50,[13],60 µM
same,TGI,[13],> 100 µM
same,GI50,[14],35.6 µM
same,TGI,[14],> 100 µM
same,GI50,[15],4.6 µM
same,TGI,[15],> 100 µM
same,GI50,[16],27.8 µM
same,TGI,[16],> 100 µM
same,GI50,[17],> 100 µM
same,TGI,[17],> 100 µM
same,GI50,[18],36.6 µM
same,TGI,[18],> 100 µM
same,GI50,[19],> 100 µM
same,TGI,[19],> 100 µM
same,GI50,[20],> 100 µM
same,TGI,[20],> 100 µM
same,GI50,[21],30.5 µM
same,TGI,[21],> 100 µM
same,GI50,[22],> 100 µM
same,TGI,[22],> 100 µM
same,GI50,[58],40.8 µM
same,TGI,[58],> 100 µM
same,GI50,[23],> 100 µM
same,TGI,[23],> 100 µM
same,GI50,[24],> 100 µM
same,TGI,[24],> 100 µM
same,GI50,[25],> 100 µM
same,TGI,[25],> 100 µM
same,GI50,[26],> 100 µM
same,TGI,[26],> 100 µM
same,GI50,[27],> 100 µM
same,TGI,[27],> 100 µM
same,GI50,[28],51.7 µM
same,TGI,[28],> 100 µM
same,GI50,[29],6.13 µM
same,TGI,[29],> 100 µM
same,GI50,[30],> 100 µM
same,TGI,[30],> 100 µM
same,GI50,[31],> 100 µM
same,TGI,[31],> 100 µM
same,GI50,[32],40.2 µM
same,TGI,[32],> 100 µM
same,GI50,[33],55.3 µM
same,TGI,[33],> 100 µM
same,GI50,[34],> 100 µM
same,TGI,[34],> 100 µM
same,GI50,[35],58.2 µM
same,TGI,[35],> 100 µM
same,GI50,[36],22.4 µM
same,TGI,[36],89.5 µM
same,GI50,[37],25.1 µM
same,TGI,[37],> 100 µM
same,GI50,[38],34.8 µM
same,TGI,[38],> 100 µM
same,GI50,[39],> 100 µM
same,TGI,[39],> 100 µM
same,GI50,[40],> 100 µM
same,TGI,[40],> 100 µM
same,GI50,[41],25.9 µM
same,TGI,[41],> 100 µM
same,GI50,[42],15 µM
same,TGI,[42],49.2 µM
same,GI50,[43],25.7 µM
same,TGI,[43],> 100 µM
same,GI50,[44],30.5 µM
same,TGI,[44],> 100 µM
same,GI50,[45],49.8 µM
same,TGI,[45],> 100 µM
same,GI50,[47],13.3 µM
same,TGI,[47],28.2 µM
same,GI50,[48],> 100 µM
same,TGI,[48],> 100 µM
same,GI50,[49],59.7 µM
same,TGI,[49],> 100 µM
same,GI50,[50],> 100 µM
same,TGI,[50],> 100 µM
same,GI50,[51],> 100 µM
same,TGI,[51],> 100 µM
same,GI50,[52],> 100 µM
same,TGI,[52],> 100 µM
same,GI50,[53],12.8 µM
same,TGI,[53],34.8 µM
same,GI50,[54],24.4 µM
same,TGI,[54],98.9 µM
same,GI50,[55],42.8 µM
same,TGI,[55],> 100 µM
same,GI50,[56],61.8 µM
same,TGI,[56],> 100 µM
same,GI50,[57],36.1 µM
same,TGI,[57],> 100 µM

# From PubChem BioAssay (NCI)
